{"source": "ChEMBL document CHEMBL4390652", "about": "“Design, biological evaluation and X-ray crystallography of nanomolar multifunctional ligands targeting simultaneously acetylcholinesterase and glycogen synthase kinase-3” (Eur J Med Chem, 2019)", "key": {"[1]": {"test_system": "Huh-7", "experiment": "Cytotoxicity against human HuH7 cells assessed as growth inhibition incubated for 48 hrs by Hoechst 33342 staining based assay", "format": "cell-based", "settings": "Huh-7, 48 h"}, "[2]": {"test_system": "Tyrosine-protein kinase ABL1 (Homo sapiens), P00519 [Q252H]", "experiment": "Binding affinity to human phosphorylated ABL1 Q252H mutant expressed in mammalian expression system assessed as residual binding level at 10 uM by Kinomescan method relative to control"}, "[3]": {"target": "RAC-alpha serine/threonine-protein kinase (Homo sapiens) (UniProt P31749)", "experiment": "Binding affinity to wild-type human partial length AKT1 expressed in bacterial expression system assessed as residual binding level at 10 uM by Kinomescan method relative to control"}, "[4]": {"test_system": "Epidermal growth factor receptor (Homo sapiens), P00533 [UNDEFINED MUTATION]", "experiment": "Binding affinity to human partial length EGFR L747-E749del/A750P mutant expressed in bacterial expression system assessed as residual binding level at 10 uM by Kinomescan method relative to control"}, "[5]": {"target": "Eukaryotic translation initiation factor 2-alpha kinase 1 (Homo sapiens) (UniProt Q9BQI3)", "experiment": "Binding affinity to wild-type human partial length EIF2AK1 (Q147 to E603 residues) expressed in mammalian expression system assessed as residual binding level at 10 uM by Kinomescan method relative to control"}, "[6]": {"target": "Ephrin type-A receptor 6 (Homo sapiens) (UniProt Q9UF33)", "experiment": "Binding affinity to wild-type human partial length EPHA6 (Y700 to E1046 residues) expressed in bacterial expression system assessed as residual binding level at 10 uM by Kinomescan method relative to control"}, "[7]": {"target": "Mitogen-activated protein kinase 6 (Homo sapiens) (UniProt Q16659)", "experiment": "Binding affinity to wild-type human partial length ERK3 (M1 to P413 residues) expressed in bacterial expression system assessed as residual binding level at 10 uM by Kinomescan method relative to control"}, "[8]": {"target": "Serine/threonine-protein kinase haspin (Homo sapiens) (UniProt Q8TF76)", "experiment": "Binding affinity to wild-type human partial length HASPIN (I452 to K798 residues) expressed in mammalian expression system assessed as residual binding level at 10 uM by Kinomescan method relative to control"}, "[9]": {"target": "Insulin receptor-related protein (Homo sapiens) (UniProt P14616)", "experiment": "Binding affinity to wild-type human partial length INSRR (R950 to E1278 residues) expressed in bacterial expression system assessed as residual binding level at 10 uM by Kinomescan method relative to control"}, "[10]": {"target": "Tyrosine-protein kinase JAK3 (Homo sapiens) (UniProt P52333)", "experiment": "Binding affinity to wild-type human partial length JAK3 JH1 catalytic domain (I781 to S1124 residues) expressed in mammalian expression system assessed as residual binding level at 10 uM by Kinomescan method relative to control"}, "[11]": {"target": "Mitogen-activated protein kinase kinase kinase 1 (Homo sapiens) (UniProt Q13233)", "experiment": "Binding affinity to wild-type human partial length MAP3K1 (L1202 to W1512 residues) expressed in mammalian expression system assessed as residual binding level at 10 uM by Kinomescan method relative to control"}, "[12]": {"target": "MAP kinase-activated protein kinase 5 (Homo sapiens) (UniProt Q8IW41)", "experiment": "Binding affinity to wild-type human partial length MAPKAPK5 (M1 to D322 residues) expressed in mammalian expression system assessed as residual binding level at 10 uM by Kinomescan method relative to control"}, "[13]": {"target": "MAP/microtubule affinity-regulating kinase 3 (Homo sapiens) (UniProt P27448)", "experiment": "Binding affinity to wild-type human full length MARK3 (M1 to L729 residues) expressed in bacterial expression system assessed as residual binding level at 10 uM by Kinomescan method relative to control"}, "[14]": {"target": "Dual specificity mitogen-activated protein kinase kinase 6 (Homo sapiens) (UniProt P52564)", "experiment": "Binding affinity to wild-type human partial length MEK6 (K36 to D334 residues) expressed in bacterial expression system assessed as residual binding level at 10 uM by Kinomescan method relative to control"}, "[15]": {"target": "Myosin-IIIa (Homo sapiens) (UniProt Q8NEV4)", "experiment": "Binding affinity to wild-type human partial length MYO3A (M1 to K338 residues) expressed in bacterial expression system assessed as residual binding level at 10 uM by Kinomescan method relative to control"}, "[16]": {"target": "Platelet-derived growth factor receptor alpha (Homo sapiens) (UniProt P16234)", "experiment": "Binding affinity to wild-type human partial length PDGFRA (V575 to D1002 residues) expressed in mammalian expression system assessed as residual binding level at 10 uM by Kinomescan method relative to control"}, "[17]": {"test_system": "Phosphatidylinositol 4,5-bisphosphate 3-kinase catalytic subunit alpha isoform (Homo sapiens), P42336 [C420R]", "experiment": "Binding affinity to human partial length PIK3CA C420R mutant (R108 to N1068 residues) expressed in mammalian expression system assessed as residual binding level at 10 uM by Kinomescan method relative to control"}, "[18]": {"target": "Serine/threonine-protein kinase pim-1 (Homo sapiens) (UniProt P11309)", "experiment": "Binding affinity to wild-type human partial length PIM1 (A15 to K313 residues) expressed in bacterial expression system assessed as residual binding level at 10 uM by Kinomescan method relative to control"}, "[19]": {"target": "Phosphatidylinositol 4-phosphate 5-kinase type-1 alpha (Homo sapiens) (UniProt Q99755)", "experiment": "Binding affinity to wild-type human full length PIP5K1A (M1 to H562 residues) expressed in bacterial expression system assessed as residual binding level at 10 uM by Kinomescan method relative to control"}, "[20]": {"target": "Serine/threonine-protein kinase PLK1 (Homo sapiens) (UniProt P53350)", "experiment": "Binding affinity to wild-type human partial length PLK1 (A33 to F325 residues) expressed in mammalian expression system assessed as residual binding level at 10 uM by Kinomescan method relative to control"}, "[21]": {"target": "Ribosomal protein S6 kinase alpha-1 (Homo sapiens) (UniProt Q15418)", "experiment": "Binding affinity to wild-type human partial length C-terminal RSK1 kinase domain 2 (P360 to L681 residues) expressed in bacterial expression system assessed as residual binding level at 10 uM by Kinomescan method relative to control"}, "[22]": {"target": "Serine/threonine-protein kinase TBK1 (Homo sapiens) (UniProt Q9UHD2)", "experiment": "Binding affinity to wild-type human full length TBK1 (M1 to L729 residues) expressed in mammalian expression system assessed as residual binding level at 10 uM by Kinomescan method relative to control"}, "[23]": {"target": "TRAF2 and NCK-interacting protein kinase (Homo sapiens) (UniProt Q9UKE5)", "experiment": "Binding affinity to wild-type human partial length TNIK (D4 to K311 residues) expressed in bacterial expression system assessed as residual binding level at 10 uM by Kinomescan method relative to control"}, "[24]": {"target": "Serine/threonine-protein kinase 32C (Homo sapiens) (UniProt Q86UX6)", "experiment": "Binding affinity to wild-type human partial length YANK3 (M68 to G486 residues) expressed in bacterial expression system assessed as residual binding level at 10 uM by Kinomescan method relative to control"}, "[25]": {"test_system": "MDR1", "experiment": "in vitro", "settings": "dog, MDCK-MDR1"}}, "data": [{"smiles": "O=C(Nc1cc(-c2cn(CCNc3c4c(nc5ccccc35)CCCC4)nn2)ccn1)Nc1cccc2c1C1CCCCN1C2=O", "note": "(racemic)", "values": [{"measurement": "IC50", "setting": "[1]", "value": 3000, "unit": "nM"}, {"measurement": "Activity", "setting": "[2]", "value": 1.4, "unit": "%"}, {"measurement": "Activity", "setting": "[3]", "value": 100, "unit": "%"}, {"measurement": "Activity", "setting": "[4]", "value": 68, "unit": "%"}, {"measurement": "Activity", "setting": "[5]", "value": 100, "unit": "%"}, {"measurement": "Activity", "setting": "[6]", "value": 97, "unit": "%"}, {"measurement": "Activity", "setting": "[7]", "value": 8.7, "unit": "%"}, {"measurement": "Activity", "setting": "[8]", "value": 3.9, "unit": "%"}, {"measurement": "Activity", "setting": "[9]", "value": 68, "unit": "%"}, {"measurement": "Activity", "setting": "[10]", "value": 0.28, "unit": "%"}, {"measurement": "Activity", "setting": "[11]", "value": 100, "unit": "%"}, {"measurement": "Activity", "setting": "[12]", "value": 42, "unit": "%"}, {"measurement": "Activity", "setting": "[13]", "value": 91, "unit": "%"}, {"measurement": "Activity", "setting": "[14]", "value": 63, "unit": "%"}, {"measurement": "Activity", "setting": "[15]", "value": 75, "unit": "%"}, {"measurement": "Activity", "setting": "[16]", "value": 22, "unit": "%"}, {"measurement": "Activity", "setting": "[17]", "value": 72, "unit": "%"}, {"measurement": "Activity", "setting": "[18]", "value": 25, "unit": "%"}, {"measurement": "Activity", "setting": "[19]", "value": 22, "unit": "%"}, {"measurement": "Activity", "setting": "[20]", "value": 81, "unit": "%"}, {"measurement": "Activity", "setting": "[21]", "value": 53, "unit": "%"}, {"measurement": "Activity", "setting": "[22]", "value": 10, "unit": "%"}, {"measurement": "Activity", "setting": "[23]", "value": 48, "unit": "%"}, {"measurement": "Activity", "setting": "[24]", "value": 75, "unit": "%"}, {"measurement": "efflux ratio", "setting": "[25]", "value": 1.51}]}]}
